Test results as given in ChEMBL document CHEMBL1221220, “Transport and signaling via the amino acid binding site of the yeast Gap1 amino acid transceptor” (Nat Chem Biol, 2009).
Changes are numbered by the printed parent chain. The source made the active and inactive calls. The rule behind the calls is not given here.

Columns and labels:
[1] = tested on: General amino-acid permease GAP1 (Saccharomyces cerevisiae), P19145 [S392C]; test: Inhibition of yeast Gap1 S392C mutant-mediated trehalose activation at 10 mM
Sequence of General amino-acid permease GAP1 (Saccharomyces cerevisiae), P19145 [S392C] (P19145 whole entry S392C): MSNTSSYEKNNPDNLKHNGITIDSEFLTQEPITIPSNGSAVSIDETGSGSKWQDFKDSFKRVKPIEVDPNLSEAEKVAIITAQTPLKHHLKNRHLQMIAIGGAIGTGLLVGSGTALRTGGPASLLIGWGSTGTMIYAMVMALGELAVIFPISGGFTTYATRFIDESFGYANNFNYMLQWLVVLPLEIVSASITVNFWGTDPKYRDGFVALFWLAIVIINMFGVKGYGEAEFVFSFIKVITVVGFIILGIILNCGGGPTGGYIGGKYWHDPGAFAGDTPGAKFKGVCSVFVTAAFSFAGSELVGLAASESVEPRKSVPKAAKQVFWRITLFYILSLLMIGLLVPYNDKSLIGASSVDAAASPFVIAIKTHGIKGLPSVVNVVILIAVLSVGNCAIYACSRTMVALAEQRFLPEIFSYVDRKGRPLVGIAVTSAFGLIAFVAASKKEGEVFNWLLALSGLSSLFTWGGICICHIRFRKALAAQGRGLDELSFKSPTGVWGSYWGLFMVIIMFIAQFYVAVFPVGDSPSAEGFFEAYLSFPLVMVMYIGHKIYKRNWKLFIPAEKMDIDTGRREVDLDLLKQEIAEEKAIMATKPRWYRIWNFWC

[2] = tested on: T1, General amino-acid permease GAP1 (Saccharomyces cerevisiae), P19145 [L383C]; test: Activation of yeast Gap1 L383C mutant-mediated amino acid uptake at 10 mM
T1 sequence (whole entry): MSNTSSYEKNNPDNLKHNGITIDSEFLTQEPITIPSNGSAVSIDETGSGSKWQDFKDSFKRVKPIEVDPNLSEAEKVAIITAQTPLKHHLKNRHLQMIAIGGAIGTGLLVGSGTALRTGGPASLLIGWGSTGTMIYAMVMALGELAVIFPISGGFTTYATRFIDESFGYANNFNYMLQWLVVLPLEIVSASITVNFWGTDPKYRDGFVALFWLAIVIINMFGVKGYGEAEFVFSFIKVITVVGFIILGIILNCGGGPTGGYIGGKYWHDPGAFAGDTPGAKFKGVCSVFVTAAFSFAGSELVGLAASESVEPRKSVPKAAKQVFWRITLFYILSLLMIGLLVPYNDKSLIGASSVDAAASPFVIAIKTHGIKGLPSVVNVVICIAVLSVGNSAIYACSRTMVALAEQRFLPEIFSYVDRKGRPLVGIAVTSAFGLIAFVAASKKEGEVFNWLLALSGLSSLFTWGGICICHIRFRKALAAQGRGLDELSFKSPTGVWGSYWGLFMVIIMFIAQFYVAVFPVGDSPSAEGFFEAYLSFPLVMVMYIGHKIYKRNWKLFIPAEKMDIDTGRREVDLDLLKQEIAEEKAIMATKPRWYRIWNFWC

[3] = tested on: T2, General amino-acid permease GAP1 (Saccharomyces cerevisiae), P19145 [S398C]; test: Induction of yeast Gap1 S398C mutant-mediated trehalose activation at 2 mM in presence of 10 mM MTSEA treated before compound addition
T2 sequence (whole entry): T1 sequence (whole entry) with C383L, S398C

[4] = tested on: T2, General amino-acid permease GAP1 (Saccharomyces cerevisiae), P19145 [S398C]; test: Activation of yeast Gap1 S398C mutant-mediated amino acid uptake at 10 mM
[5] = tested on: T1, General amino-acid permease GAP1 (Saccharomyces cerevisiae), P19145 [L383C]; test: Induction of yeast Gap1 L383C mutant-mediated trehalose activation at 10 mM
[6] = tested on: T3, General amino-acid permease GAP1 (Saccharomyces cerevisiae), P19145 [M401C]; test: Induction of yeast Gap1 M401C mutant-mediated amino acid uptake at 2 mM in presence of 10 mM MTSEA treated before compound addition
T3 sequence (whole entry): T1 sequence (whole entry) with C383L, M401C

[7] = tested on: T4, General amino-acid permease GAP1 (Saccharomyces cerevisiae), P19145 [L387C]; test: Induction of yeast Gap1 L387C mutant-mediated trehalose activation at 2 mM in presence of 10 mM MTSEA treated before compound addition
T4 sequence (whole entry): T1 sequence (whole entry) with C383L, L387C

Structure (SMILES): NC(=O)NCCC[C@H](N)C(=O)O
- inhibition [1]: Active
- Activity [2]: inactive
- inhibition [3]: Active
- Activity [4]: inactive
- Activity [5]: inactive
- Activity [6]: Active
- inhibition [7]: Active
